Experimental data published in patent publication US20230107216A1, “PANTETHEINE DERIVATIVES AND USES THEREOF” (Comet Therapeutics, Inc., priority 2018, published 2023).
Like-named read-outs stand apart in the source and are kept apart here.

What was measured:
[1] = tested on: Methylmalonic Acidemia (MMA) primary fibroblasts GM01673; experiment: Mitochondrial respiration, XFe96 Extracellular Flux Analyzer (OCR/ECAR), MMA fibroblasts GM01673; format: cell-based; settings: Homo sapiens, Fibroblast
How it was run: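 Primary fibroblasts (20000 cells/well) were held 24 h in supplemented DMEM before Seahorse OCR/ECAR profiling. Compounds at 10 to 50 μM or 0.1% DMSO were injected after baseline, then oligomycin 1 μg/ml, FCCP, and rotenone/antimycin A 0.5 μM. Values were normalized to Hoechst nuclear counts, baselined to pre-compound, and expressed relative to vehicle.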

[2] = tested on: Keratinocytes co-cultured with dermal fibroblast (KF3CT system); experiment: BioMAP KF3CT system (IL-1β, TNFα, IFNγ, TGFβ); format: cell-based, human; settings: for % increase in MCP-1: procedure of Example 834
Method: The BioMAP platform (BioMAP® Diversity PLUS® Panel from Eurofins) is an in vitro phenotypic profiling technology that screened the compounds of the present disclosure (hereafter indicated as test agents) in human primary cell-based systems modelling complex tissue and disease states. The BioMAP assays were performed using the Eurofin's BioMAP Technology Platform as (see references 1 to 13 in the example 824 section) to model different diseases on primary cell-based model systems. These systems consisted of either single primary cell types or co-culture cells. Adherent cell types were cultured or co-cultured in 96 or 384-well plates until confluence followed by the addition of compounds prepared in DMSO at a final concentration of ≤0.1%. In each cell-based system, primary cells from heathy donors (2-6 donors) were pooled and treated with compounds at 1 and 10 μM dose 1h prior to stimulation and remain in culture as indicated in Example 825, Example 826, Example 827, Example 828, Example 829, Example 830, Example 831, Example 832, Example 833, Example 834, Example 835, Example 836 and Example 837. For on the BioMAP® Diversity PLUS® Panel, please see the following references, which are incorporate herein.
Following the general procedure as described in Example 824, Keratinocytes were co-cultured with dermal fibroblast (KF3CT system) and treated with IL-1β, TNFα, IFNγ and TGFβ for 24h in the presence or absence of the compounds to model psoriasis, dermatitis and skin biology. Biomarkers read out were; MCP-1, ICAM-1, IP-10, IL-8, MIG, IL-1α, MMP-9, PAI-1, SRB, TIMP-2, uPA.

[3] = assay condition D (1 mM glucose, 10% FBS), read-out: Increase in Maximal Respiratory Capacity AUC
[4] = assay condition A (10 mM glucose, 2 mM L-glutamine, 1 mM pyruvate, 10% FBS), read-out: Increase in Maximal Respiratory Capacity AUC

## CC(C)(CO)[C@@H](O)C(=O)NCCC(=O)NCCSC(=O)CC(=O)CCC(=O)O [Compound 2, 6-[(2-[3-[(2R)-2,4-dihydroxy-3,3-dimethylbutanamido]propanamido]ethyl)sulfanyl]-4,6-dioxohexanoic acid]
[1]; assay condition D (1 mM glucose, 10% FBS), read-out: Increase in Spare Capacity AUC
  activation at 10 µM: ≥ 50%

## C[C@@H](O)CC(=O)CC(=O)SCCNC(=O)CCNC(=O)[C@H](O)C(C)(C)CO [Compound 42, (2R)-2,4-dihydroxy-N-[2-[(2-[[(5R)-5-hydroxy-3-oxohexanoyl]sulfanyl]ethyl)carbamoyl]ethyl]-3,3-dimethylbutanamide]
[2]; 10 uM
  % increase in MCP-1: ≥10%

## CC(C)(CO)[C@@H](O)C(=O)NCCC(=O)NCCSC(CC(=O)OCC[N+](C)(C)C)C(=O)O (stereo partly drawn) [Compound 51, [2-([3-carboxy-3-[(2-[3-[(2R)-2,4-dihydroxy-3,3-dimethylbutanamido]propanamido]ethyl)sulfanyl]propanoyl]oxy)ethyl]trimethylazanium]
[1]; [3]
  activation at 10 µM: ≥ 10%

## COC(=O)CCC(=O)SCCNC(=O)CCNC(=O)[C@H](O)C(C)(C)COC(C)=O [Compound 138]
[2]; 10 uM
  % increase in SRB: ≥10%

## COC(=O)CC(SCCNC(=O)CCNC(=O)[C@H](O)C(C)(C)COC(C)=O)C(=O)OC (stereo partly drawn) [Compound 149, 1,4-dimethyl 2-[(2-[3-[(2R)-4-(acetyloxy)-2-hydroxy-3,3-dimethylbutanamido]propanamido]ethyl)sulfanyl]butanedioate]
[1]; [3]
  activation at 10 µM: ≥ 10%

## CC(C)(CO)[C@@H](O)C(=O)NCCC(=O)NCCSC(=O)CCCN [Compound 370, (2R)—N-[2-([2-[(4-aminobutanoyl)sulfanyl]ethyl]carbamoyl)ethyl]-2,4-dihydroxy-3,3-dimethylbutanamide]
[1]; [3]
  activation at 10 µM: ≥ 10%

## CC(C)(CO)[C@@H](O)C(=O)NCCC(=O)NCCSC(=O)[C@@H](N)Cc1ccc(O)c(O)c1 [Compound 371, (2R)—N-[2-[(2-[[(2S)-2-amino-3-(3,4-dihydroxyphenyl)propanoyl]sulfanyl]ethyl)carbamoyl]ethyl]-2,4-dihydroxy-3,3-dimethylbutanamide]
[2]; 1 uM
  % increase in MMP-9: ≥10%
  % increase in MCP-1: ≥10%
[1]; [3]
  activation at 10 µM: ≥ 10%

## CCCCCCC(=O)SCCNC(=O)CCNC(=O)[C@H](O)C(C)(C)CO [Compound 372, (2R)—N-(2-[[2-(heptanoylsulfanyl)ethyl]carbamoyl]ethyl)-2,4-dihydroxy-3,3-dimethylbutanamide]
[1]; assay condition A (10 mM glucose, 2 mM L-glutamine, 1 mM pyruvate, 10% FBS), read-out: Increase in Spare Capacity AUC
  activation at 10 µM: ≥ 10%

## COC(=O)CC(C(C)=O)C(=O)SCCNC(=O)CCNC(=O)[C@H](O)C(C)(C)CO (stereo partly shown) [Compound 410]
[1]; assay condition A (10 mM glucose, 2 mM L-glutamine, 1 mM pyruvate, 10% FBS), 50 μM, read-out: Increase in Spare Capacity AUC
  activation at 50 µM: ≥ 10%

## CC(=O)SCCNC(=O)CCNC(=O)[C@H](O)C(C)(C)COC(=O)[C@@H](N)Cc1ccc(O)c(O)c1 [Compound 498, (3R)-3-[(2-[[2-(acetylsulfanyl)ethyl]carbamoyl]ethyl)carbamoyl]-3-hydroxy-2,2-dimethylpropyl (2S)-2-amino-3-(3,4-dihydroxyphenyl)propanoate]
[2]; 1 uM
  % increase in MCP-1: ≥10%
[2]; 10 uM
  % increase in TIMP-2: ≥10%

## CC(=O)SCCNC(=O)CCNC(=O)[C@H](O)C(C)(C)COC(=O)[C@H](C)N [Compound 502, (3R)-3-[(2-[[2-(acetylsulfanyl)ethyl]carbamoyl]ethyl)carbamoyl]-3-hydroxy-2,2-dimethylpropyl (2S)-2-aminopropanoate]
[1]; [4]
  activation at 10 µM: ≥ 10%

## CC(=O)OCC(C)(C)[C@@H](OC(C)=O)C(=O)NCCC(=O)NCCSC(C)=O [Compound 1264, (1R)-3-(acetyloxy)-1-[(2-[[2-(acetylsulfanyl)ethyl]carbamoyl]ethyl)carbamoyl]-2,2-dimethylpropyl acetate]
[2]; 1 uM
  % decrease in IL-1a: ≥10%
  % increase in MCP-1: ≥10%

## COC(=O)CCC(=O)SCCNC(=O)CCNC(=O)[C@H](OC(=O)CN)C(C)(C)CO [Compound 1294, methyl 4-[(2-[3-[(2R)-2-[(2-aminoacetyl)oxy]-4-hydroxy-3,3-dimethylbutanamido]propanamido]ethyl)sulfanyl]-4-oxobutanoate]
[2]; 1 uM
  % decrease in MMP-9: ≥10%
[2]; 10 uM
  % increase in IL-1α: ≥10%

## CC(C)(CO)[C@@H](O)C(=O)NCCC(=O)NCCSC(=O)CCCO [Compound 1304, (2R)-2,4-dihydroxy-N-[2-([2-[(4-hydroxybutanoyl)sulfanyl]ethyl]carbamoyl)ethyl]-3,3-dimethylbutanamide]
[1]; [4]
  activation at 10 µM: ≥ 10%
